Experimental data published in article PMC5556071, “ATR inhibition facilitates targeting of leukemia dependence on convergent nucleotide biosynthetic pathways” (Nature Communications, 2017).
“And” between values parts separate entries of the source, which are not always exact repeats. Identical values can stand only once.

System: CEM cells
Experiment: Non-targeted LC-MS metabolite profiling: percent [13C6]glucose labeling and relative metabolite levels
Assay type: cell-based, human
Details: CEM cells, 12 h following release from G1 arrest, replicates #1-#6
From the text: To further investigate the functions of dCK and ATR at the G1/S transition in CEM cells, a non-targeted liquid chromatography mass spectrometry (LC-MS) assay was used to determine the utilization of labeled [^13C6]glucose and [^13C9,^15N3]deoxycytidine, the main substrates for de novo and salvage nucleotide biosynthesis, respectively. Of the 166 metabolites identified in CEM cells treated with VE-822 and/or dCKi, 105 metabolites found in all four treatment groups contained glucose-derived ^13C atoms. […] These metabolites included intermediates such as rUTP, rCTP and rCDP in the de novo dCTP biosynthesis (Fig. 1d). […] However, several deoxyribonucleotides, including dCTP, were below the limit of detection of the non-targeted LC-MS approach, raising the concern that the sensitivity of this assay is not sufficient to measure the contribution of the salvage pathway or the ratio of de novo and salvage biosynthesis to these pools. To address this problem, a newly developed targeted MS assay was developed (Fig. 1e and Supplementary Fig. 3). In this assay, samples containing either extracted dNTPs or hydrolyzed DNA from labeled cells are separated by LC for detection by a triple quadrupole mass spectrometer using multiple reaction monitoring (LC-MS/MS-MRM). The first (Q1) and third (Q3) quadrupoles function as mass filters, while the second (Q2) quadrupole serves as a collision chamber (Fig. 1e). For instance, to profile the biosynthetic composition of deoxycytidine (dC) derived from hydrolyzed DNA or dCTP, an intact, protonated dC ion is selected in Q1, followed by fragmentation of the glycosidic bond, which releases protonated cytosine in Q2, that is filtered in Q3 and detected to generate an ion chromatogram. The peak areas for the ion chromatograms of salvage [^13C9,^15N3]dC (red trace), de novo [^13C5]dC (black trace, from [^13C6]glucose) and unlabeled dC (gray trace) (Fig. 1e) are used to determine the relative contributions of the de novo and salvage routes both to dCTP pools and to DNA-incorporated dCTP.
Cells were transferred into RPMI-1640 without glucose and supplemented with 10% dialyzed FBS (Gibco) containing the following labeled substrates: precursors for de novo [U-^13C6]glucose (Sigma-Aldrich, 389374) at 11 mM; precursors for purine salvage [U-^13C10,^15N5]dA (Cambridge Isotopes, CIL 3896), [^15N5]dA (Cambridge Isotopes, NLM-3895) and [^15N5]dG (Cambridge Isotopes, NLM-3899) at 5 µM or as indicated; and precursors for pyrimidine salvage: [U-^13C9,^15N3]dC (Silantes, 124603602) and [U-^13C10,^15N2]dT (Cambridge Isotopes, CNLM-3902) at 5 µM and [^15N2]orotate (Cambridge Isotopes, NLM-1048) at indicated concentrations. The cells were incubated for 12 h or as indicated before sample collection and processing. […]
Non-targeted LC-MS metabolic assays. 1 x 10^6 cells were washed with ice-cold 150 mM ammonium acetate twice before adding 1 mL of ice-cold 80% methanol with 10 nM norvaline as an internal standard. After vigorous vortexing, samples were centrifuged at maximum speed, the aqueous layer was transferred to a glass vial and the metabolites were dried under vacuum. Metabolites were resuspended in 50 μL 70% acetonitrile (ACN) and 5 μL of this solution used for the mass spectrometer-based analysis. The analysis was performed on a Q Exactive (Thermo Scientific) in polarity-switching mode with positive voltage 4.0 kV and negative voltage 4.0 kV. The mass spectrometer was coupled to an UltiMate 3000RSLC (Thermo Scientific) UHPLC system. Mobile phase A was 5 mM ammonium acetate (NH4AcO), pH 9.9, B was acetonitrile and the separation achieved on a Luna […] NH2 100 A column (150 × 2.0 mm, Phenomenex). The flow was 200 μL/min, and the gradient ran from 15% A to 95% A in 18 min, followed by an isocratic step for 9 min and re-equilibration for 7 min. Metabolites were detected and quantified as area under the curve based on retention time and accurate mass (≤ 3 p.p.m.) using the TraceFinder 3.1 (Thermo Scientific). Relative amounts of […]

COc1ccc(-c2nc([C@@H](C)Sc3nc(N)cc(N)n3)c(C)s2)cc1OCCNS(C)(=O)=O [dCKi]
Glucose labeling, Trp (C00078): 0.00%
Glucose labeling, Val (C00183): 0.00%
Relative level, PEP: 0.343
Glucose labeling, Isocaproate (listed as D): 0.00% (5×) and -2.22e-14%
Glucose labeling, Lac (listed as D): 17.43% and 30.68% and 33.28% and 15.68% and 13.00% and 14.89%
Glucose labeling, Leu/Ile (listed as D): -2.22e-14% and 0.00% (4×) and 1.11e-14%
Glucose labeling, Mal (listed as D): 22.81% and 24.17% and 24.40% and 21.37% and 22.21% and 23.38%
Glucose labeling, Met (listed as D): 0.00216% and 0.00198% and 0.00236% and 0.00202% and 0.00192% and 0.00223%
Glucose labeling, N-Carbamoyl-L-aspartate (listed as D): 0.000983% and 0.12% (2×) and 0.00101% and 100.00% (2×)
Glucose labeling, NADP+ (listed as D): 100.00% (4×) and 0.00% (2×)
Glucose labeling, Ornithine (listed as D): 0.08% (2×) and 0.12% (3×) and 0.09%
Glucose labeling, Orotate (listed as D): 5.20% and 3.14% and 4.02% and 100.00% and 0.12% (2×)
Glucose labeling, Orotidine (listed as D): 49.18% and 49.16% and 49.11% and 54.80% and 53.82% and 55.45%
Glucose labeling, P-Choline (listed as D): 0.00228% and 0.00166% (2×) and 0.00229% and 0.00101% and 0.00171%
Glucose labeling, P-Ser (listed as D): 21.30% and 20.75% and 19.61% and 16.22% and 19.77% and 14.08%
Glucose labeling, Palmitate (listed as D): 0.0136% and 0.0179% and 0.09% and 0.03% and 0.0457% and 0.04%
Glucose labeling, Pantothenate (listed as D): 0.00% (5×) and 1.11e-14%
Glucose labeling, Pro (listed as D): 9.90% and 11.07% and 10.77% and 9.63% and 9.83% and 9.85%
Glucose labeling, Pro-OH (listed as D): 0.00135% and 0.00138% and 0.000869% and 0.0017% and 0.00248% and 0.00239%
Glucose labeling, R5P (listed as D): 87.51% and 100.00% (5×)
Glucose labeling, S7P (listed as D): 85.34% and 43.01% and 49.65% and 0.26% and 34.90% and 73.97%
Glucose labeling, SAM (listed as D): 73.81% and 73.09% and 74.83% and 72.35% and 72.18% and 72.31%
Glucose labeling, Sarc (C00213) (listed as D): 0.0243% (2×) and 0.0369% (3×) and 0.0225%
Glucose labeling, Ser (C00065) (listed as D): 13.87% and 15.01% and 14.51% and 12.51% and 11.83% and 11.82%
Glucose labeling, Shikimate (C00493) (listed as D): 0.00% (5×) and 1.11e-14%
Glucose labeling, Succ (C00042) (listed as D): 0.0276% and 1.49% and 1.88% and 0.0331% and 0.0737% (2×)
Glucose labeling, T (C00214) (listed as D): 0.15% and 0.44% and 0.32% and 0.24% and 0.03% and 0.02%
Glucose labeling, Thymine (C00178) (listed as D): 0.02% (2×) and 0.00812% and 0.0214% and 0.0432% and 0.0317%
Glucose labeling, Tyr (C00082) (listed as D): 0.00% (5×) and 1.11e-14%
Glucose labeling, Tyramine (C00483) (listed as D): 0.00% (5×) and 1.11e-14%
Glucose labeling, UDP (C00015) (listed as D): 74.72% and 81.32% and 85.65% and 45.74% and 66.67% and 72.12%
Glucose labeling, UDP-Glc (C00029) (listed as D): 95.49% and 96.74% and 98.34% and 91.90% and 85.90% and 94.22%
Glucose labeling, UDP-GlcNAc (C00043) (listed as D): 91.41% and 90.20% and 90.50% and 87.89% and 87.54% and 87.94%
Glucose labeling, UMP (C00105) (listed as D): 79.30% and 82.81% and 83.09% and 50.51% and 65.12% and 69.81%
Glucose labeling, UTP (C00075) (listed as D): 90.44% and 89.69% and 89.62% and 94.73% and 88.15% and 87.27%
Glucose labeling, Uracil (C00106) (listed as D): 0.0737% (3×) and 0.06% and 0.05% and 0.065%
Glucose labeling, Uric Acid (C00366) (listed as D): 0.00% (4×) and -2.22e-14% (2×)
Glucose labeling, Urocanate (C00785) (listed as D): 0.00% (5×) and 1.11e-14%
Glucose labeling, Vit-C (C00072) (listed as D): 0.00% (4×) and 1.11e-14% (2×)
Glucose labeling, Xanthine (C00385) (listed as D): 0.10% (2×) and 0.12% (3×) and 0.08%
Relative level, Isocaproate (listed as D): 1.0 (2×) and 0.8 and 0.9 (3×)
Relative level, Lac (listed as D): 1.1 and 0.9 and 1.0 and 0.446 and 0.548 and 0.7
Relative level, Leu/Ile (listed as D): 1.0 and 1.3 and 1.5 and 0.8 (2×) and 0.9
Relative level, Lys (listed as D): 1.2 (2×) and 1.5 and 0.8 (2×) and 0.9
Relative level, Mal (listed as D): 0.8 and 1.0 and 1.4 and 0.339 and 0.53 and 0.65
Relative level, Met (listed as D): 1.0 and 1.3 and 1.4 and 0.8 (2×) and 0.9
Relative level, N-Carbamoyl-L-aspartate (listed as D): 0.7 and 1.5 and 2.9 and 0.5
Relative level, NAD+ (listed as D): 0.8 and 1.1 (2×) and 1.3 and 0.553 and 0.7
Relative level, NADP+ (listed as D): 1.6 and 0.273
Relative level, Nicotinamide (listed as D): 1.3 and 1.4 and 1.2 and 0.7 and 0.743 and 0.527
Relative level, Ornithine (listed as D): 1.6 and 0.9 and 1.1 and 0.8 (2×) and 1.0
Relative level, Orotate (listed as D): 0.468 and 0.9 and 0.8 and 0.0556 and 0.0189
Relative level, Orotidine (listed as D): 1.2 and 1.6 and 1.5 and 0.8 (2×) and 0.9
Relative level, P-Choline (listed as D): 1.0 and 1.1 and 1.4 and 0.5 (2×) and 0.65
Relative level, P-Creatine (listed as D): 0.8 and 0.6 and 1.6 and 2.2 and 1.2 and 1.5
Relative level, P-EtA (listed as D): 0.9 and 0.452 and 1.3 and 0.5 and 0.6 and 0.8
Relative level, P-Ser (listed as D): 1.2 and 1.3 (2×) and 0.3 and 0.317 and 0.334
Relative level, Palmitate (listed as D): 1.1 (4×) and 0.85 and 0.9
Relative level, Pantothenate (listed as D): 1.2 and 1.6 and 1.7 and 0.9 (3×)
Relative level, Phe (listed as D): 1.1 and 1.4 and 1.6 and 0.9 (2×) and 1.0
Relative level, Pipecolate (listed as D): 1.2 and 1.1 and 1.4 and 0.8 and 0.7 and 0.9
Relative level, Pro (listed as D): 1.0 and 1.3 (2×) and 0.8 (2×) and 0.753
Relative level, Pro-OH (listed as D): 1.1 and 1.2 and 1.3 and 0.8 (2×) and 0.75
Relative level, Pyr (listed as D): 0.171 and 2.0 and 11.3 and 1.7 and 3.4 and 3.3
Relative level, R5P (listed as D): 0.9 and 0.4 and 2.2 and 0.2
